Data on ten compounds can be found in patent US11440880B2, “Thalidomide analogs and methods of use” (The USA, as represented by the Secretary, Department of …, priority 2015, dated 2022).

Series [1] deals with fli1:EGFP zebrafish embryos (intersegmental vessel growth). Put plainly: fli1:EGFP zebrafish embryo angiogenesis assay. The settings on record: for minimal effective concentration: Danio rerio, lowest concentration producing an effect, compounds not producing an effect shown at the highest evaluated concentration; for fli1:EGFP angiogenesis n (survived/tested): embryos alive after 24 hours of exposure. Also noted: fli1:EGFP angiogenesis n (survived/tested): concentration or dose not given beside the values. It counts as in vivo. The text has this:
Zebrafish embryology: The use of zebrafish embryo (Danio rerio) bioassays as a preclinical model in the classification of novel compounds has increased in recent years due to several factors including; low cost, ease of maintenance, speed of embryonic development, transparency of the embryos and genetic conservation between zebrafish and humans (Howe et al., Nature 2013; 496:498; Therapontos et al., PNAS 2009, 106:8573; Mahony et al., PNAS 2013, 110:12703; Beedie et al., Oncotarget 2016, 7(22):33237; Beedie et al., Mol. Cancer Ther. 2015, 14(10):2228). Two established zebrafish reporter lines were used—the fli1:EGFP line, where the fli1 promoter drives expression of enhanced green fluorescent protein within the developing vasculature (Lawson et al., 2002), and the Tg(mpo::EGFP) line (also known as mpo:GFP), which expresses green fluorescent protein via the neutrophil specific myeloperoxidase promoter (Renshaw et al., Blood 2006, 108:3976). The use of these zebrafish transgenic reporter lines allows for the identification of potential anti-angiogenic and anti-inflammatory compounds respectively, and both have been used previously to successfully classify the action of thalidomide analogs (Therapontos et al., 2009; Mahony et al., 2013; Beedie et al., Oncotarget 2016, 7(22):33237; Beedie et al., Mol. Cancer Ther. 2015, 14(10):2228). Zebrafish embryos were treated with analogs as previously described (Mahony et al., 2013). Briefly, fli1:EGFP embryos were collected and embryos were allowed to develop for 24 hours. Embryos were dechorionated manually and exposed to test compounds or vehicle control for a further 24 hours, imaged and analyzed for intersegmental vessel (ISV) growth. At 24 hours post fertilisation (hpf) the ISVs were ideal to study to visualize and analyze the actions of compounds on angiogenesis. At this time point ISVs were rapidly forming beneath the developing head, over the body and had yet to form in the tail (Lawson and Weinstein, Developmental Biology 2002, 248:307; Therapontos and Vargesson, Developmental Dynamics 2010, 239:2761). Additionally, these sprouts would go on to form the bilateral dorsal longitudinal anastomotic vessels. By treating before this fusion and formation occurs, the effect of each compound on the individual vessels as well as overall patterning structural integrity (Isogai et al., Development 2003, 130:5281) could be determined. Tg(mpo::EGFP) were tail fin clipped as previously detailed (Renshaw et al., 2006; Mahony et al., 2013; Beedie et al., Oncotarget 2016, 7(22):33237; Beedie et al., Mol. Cancer Ther. 2015, 14(10):2228) and incubated with test compounds or vehicle control at 72 hours post fertilization. Fish were imaged at 24 hours and the number of migratory neutrophils present at the wound site were counted. Compounds inducing an at least 50% reduction of neutrophils to the wound site were considered to have anti-inflammatory properties in this system. All larvae were assessed for viability and morphological integrity.
To determine if the thalidomide analogs had any effect on angiogenesis, fli1:EGFP embryos (Lawson and Weinstein, Developmental Biology 2002, 248:307-318) were exposed to either vehicle or a compound of interest, over a range of concentrations and over a range of time points starting at 24 hpf. Images were obtained at three time points over 24 hours after exposure to the compounds. The best concentration and time point were selected. CPS49, a compound that is chemically and structurally similar to thalidomide breakdown products, and is tetrafluorinated (which adds stability and bioactivity to the compound) and that causes severe limb defects in chicken embryos, was used as a positive control. The embryos were imaged at 48 hpf (FIGS. 3A3L) and analyzed for both vessel formation and the extent of growth of the vasculature. […]

Series [2] concerns RAW 264.7 cells. Put plainly: Cell viability (CellTiter 96 AQueous One) of LPS-challenged RAW 264.7 cells. It counts as cell-based, mouse. Also noted: key: NS=not significant; a “+” sign=anti-inflammatory or increased cell numbers; a “−” sign=cell toxicity or pro-inflammatory. The method, then: The CellTiter 96® AQueous One Solution Cell Proliferation Assay (Promega, Madison, Wis.) is routinely used as an assay of cell proliferation, and was used according to the manufacturer's recommendations. Changes in cellular health status are determined by use of indirect measures related to the formation of a colored tetrazolium dye product that can be measured spectrophotometrically at 490 nm λ. […] Optical densities (expressed as O.D.s) were measured after various incubations.
(§1) RAW 264.7 cells obtained from ATCC (Manassas, Va., USA) were grown in DMEM media supplemented with 10% FCS, penicillin 100 μg/ml and streptomycin 100 μg/ml, and maintained at 37° C. and 5% CO2. Cells were seeded in 24 well plates and, 24 hours later, were utilized in studies. One hour prior to the initiation of any study, the seeding media was replaced with fresh media (1 mL), and the cells were allowed to equilibrate at 37° C. and 5% CO2.
(§2) RAW 264.7 cells were challenged with LPS (Sigma, St Louis, Mo.: serotype 055:B5) from at a final concentration of 30 or 60 ng/mL. This concentration of LPS in RAW 264.7 cells induces a sub-maximal rise in both TNF-alpha and nitrite levels without a loss in cellular viability. This sub-maximal rise is useful for assessing whether the addition of an experimental drug can either lower or further raise levels of TNF-α and nitrite. Twenty four hours following the addition of LPS, conditioned media was harvested and analyzed for quantification of secreted TNF-α protein and nitrite levels. Fresh media was replaced into the wells and cell viability was then assessed.
(§3) Thalidomide and analogs were prepared in tissue culture grade DMSO (Sigma). RAW 264.7 cells were pretreated with thalidomide, analogues or vehicle one hour prior to a challenge with LPS. The effects of various concentrations of thalidomide analogues were assessed. All compounds were synthesized to a chemical purity of >99.5%, as assessed by chemical characterization by a combination of 1H NMR, 13C NMR and GC/MS analyses (Bruker AC-300 spectrometer, together with elemental analyses (Atlantic Microlab, Inc., Norcross, Ga.).

For series [3], the system named is nitrite levels in the culture media. Put plainly: Nitrite level (Griess Reagent System) in LPS-challenged RAW 264.7 cells. The series is classed as cell-based, mouse. Also noted: key: NS=not significant; a “+” sign=anti-inflammatory or increased cell numbers; a “−” sign=cell toxicity or pro-inflammatory. The conditions noted are these: LPS 30 or 60 ng/mL, 24 h. The method, then: (§4) Nitrite levels in the culture media were measured by use of the Griess Reagent System (Promega, Madison, Wis.), following the manufacturer's protocol. The O.D. of unknown samples was read at 520 nm λ, compared to a sodium nitrite standard curve (1.5 μM to 100 μM) and nitrite measured media concentrations expressed as μM units. As the lowest nitrite concentration on the Griess Reagent System standard curve was 1.5 μM, this was chosen as the effective cutoff for defining measurable nitrite concentrations. TNF-α protein levels were measured by use of an ELISA specific for mouse TNF-α protein (BioLegend, San Diego, Calif.) and are expressed as a % change from their appropriate control or as pg/ml.
as §1, §2, §3
Background: Nitrite, measured by Griess reagent, commonly stands in for NO production.

The test system of series [4] is TNF-α protein. Put plainly: TNF-α protein level (ELISA) in LPS-challenged RAW 264.7 cells. Also noted: key: NS=not significant; a “+” sign=anti-inflammatory or increased cell numbers; a “−” sign=cell toxicity or pro-inflammatory. The conditions noted are these: LPS 30 or 60 ng/mL, 24 h. It counts as cell-based, mouse. The method, then: as §4, §1, §2, §3

With `O=C1c2c(F)c(F)c(F)c(F)c2C(=O)N1c1ccc(F)cc1F` [CPS49, reference compound], in series [1] (in words), the “anti-angiogenic effect (loss of ISVs or inhibition of ISV outgrowth)” value is “decrease in blood vessel length”.

By minimal effective concentration is commonly meant the lowest level tested that produced the effect sought. For the compound `CC(N1Cc2c(cccc2[N+](=O)[O-])C1=S)C12CC3CC(CC(C3)C1)C2` (stereo not shown) [Compound 89], the Viability result is “NS” in series [2] (1 μM), “NS” in series [2] (10 μM) and “−” in series [2] (30 μM). Also, the minimal effective concentration in series [1] came out at 10 µg/mL. The “fli1:EGFP angiogenesis n (survived/tested)” value in series [1] was 7/11. For the same compound, the Nitrite result in series [3] (1 μM) is recorded as “NS”; in series [3] (10 μM) it was “+”; in series [3] (30 μM), “+”. Further, the TNF-α entry in series [4] (1 μM), in series [4] (10 μM) and in series [4] (30 μM) was “NS” in each case.

In the case of `C[C@H]1[C@H](N2Cc3c(N)cccc3C2=O)C[C@@H]2C[C@H]1C2(C)C` [Compound 91], the Viability result is on record as “NS” in series [2] (1 μM), “+” in series [2] (10 μM) and “+” in series [2] (30 μM). The compound also had a minimal effective concentration in series [1] of 10 µg/mL. Also, the “fli1:EGFP angiogenesis n (survived/tested)” value in series [1] is 5/18. Besides, the Nitrite result in series [3] (1 μM), in series [3] (10 μM) and in series [3] (30 μM) was “+” throughout. For the same compound, the TNF-α entry was “NS” in series [4] (1 μM), “+” in series [4] (10 μM) and “+” in series [4] (30 μM).

On to `C[C@@H]1[C@@H](N2Cc3c(N)cccc3C2=O)C[C@H]2C[C@@H]1C2(C)C` [Compound 93], for which the Viability entry in series [2] (1 μM), in series [2] (10 μM) and in series [2] (30 μM) was “NS” in each case. The same compound showed a minimal effective concentration in series [1] of 10 µg/mL. For the same compound, in series [1], the “fli1:EGFP angiogenesis n (survived/tested)” value is on record as 8/10. Also, the figures for the Nitrite entry in series [3] (1 μM), in series [3] (10 μM) and in series [3] (30 μM) were “NS”, “NS” and “+”, respectively. The TNF-α result in series [4] (1 μM), in series [4] (10 μM) and in series [4] (30 μM) was “NS” each time.

In the case of `CC1(C)[C@@H]2CC[C@H](CN3C(=O)C4C5C=CC(C5)C4C3=O)[C@H]1C2` (stereo partly shown) [Compound 114], the Viability result in series [2] (10 μM), in series [2] (30 μM) and in series [2] (60 μM) was “−” throughout. In addition, the Nitrite result in series [3] (10 μM), in series [3] (30 μM) and in series [3] (60 μM) was “+” each time. For the same compound, the TNF-α result in series [4] (10 μM), in series [4] (30 μM) and in series [4] (60 μM) was “+” each time.

In the case of `CC1(C)[C@@H]2CC[C@]1(C)[C@@H](N1C(=O)C3CC=CCC3C1=O)C2` (stereo partly shown) [Compound 115], the Viability result in series [2] (10 μM), in series [2] (30 μM) and in series [2] (60 μM) was “−” in each case. The Nitrite result in series [3] (10 μM), in series [3] (30 μM) and in series [3] (60 μM) was “+” throughout. Besides, the TNF-α entry in series [4] (10 μM), in series [4] (30 μM) and in series [4] (60 μM) was “+” each time.

On to `CC1(C)[C@@H]2CC[C@@]1(C)[C@@H](N1C(=O)C3C4C=CC(C4)C3C1=O)C2` (stereo partly shown) [Compound 116], for which the Viability result in series [2] (10 μM) is on record as “−”; in series [2] (30 μM) it was “−”; in series [2] (60 μM) it was “NS”. The Nitrite result in series [3] (10 μM), in series [3] (30 μM) and in series [3] (60 μM) was “NS” in each case. Further, the TNF-α result in series [4] (10 μM), in series [4] (30 μM) and in series [4] (60 μM) was “NS” each time.

Consider `CC1(C)[C@@H]2CC[C@]1(C)[C@@H](N1C(=O)C3C4C=CC(C4)C3C1=O)C2` (stereo partly shown) [Compound 117], for which the Viability result in series [2] (10 μM), in series [2] (30 μM) and in series [2] (60 μM) was “−” each time. Moreover, the Nitrite entry in series [3] (10 μM), in series [3] (30 μM) and in series [3] (60 μM) was “+” throughout. Further, the TNF-α entry in series [4] (10 μM), in series [4] (30 μM) and in series [4] (60 μM) was “+” throughout.

In the case of `C[C@H]1[C@H](N2C(=O)C3CC=CCC3C2=O)C[C@@H]2C[C@H]1C2(C)C` (stereo partly shown) [Compound 118], the Viability entry in series [2] (10 μM), in series [2] (30 μM) and in series [2] (60 μM) was “−” throughout. Further, the Nitrite result in series [3] (10 μM), in series [3] (30 μM) and in series [3] (60 μM) was “+” in each case. Also, the TNF-α result in series [4] (10 μM), in series [4] (30 μM) and in series [4] (60 μM) was “+” in each case.

As to `C[C@H]1[C@H](N2C(=O)C3C4C=CC(C4)C3C2=O)C[C@@H]2C[C@H]1C2(C)C` (stereo partly shown) [Compound 119], the Viability entry in series [2] (10 μM), in series [2] (30 μM) and in series [2] (60 μM) was “−” each time. The Nitrite result in series [3] (10 μM), in series [3] (30 μM) and in series [3] (60 μM) was “+” in each case. For the same compound, the TNF-α entry in series [4] (10 μM), in series [4] (30 μM) and in series [4] (60 μM) was “+” each time.
